According to paper PMC7367873, “Dissecting the sequence determinants for dephosphorylation by the catalytic subunits of phosphatases PP1 and PP2A” (Nature Communications, 2020):

Experiments:
PP2Ac = target: T1, PP2Ac (Homo sapiens, UniProt P67775); experiment: Kinetics of phosphopeptide dephosphorylation by PP2Ac (EnzChek Phosphate Assay); format: biochemical; conditions: non-competitive phosphatase activity assay, Supplementary Fig. 3c
T1 construct: purchased Cayman Chemical 10011237
Method: (§1) Prior to library dephosphorylation with subsequent MS analysis, as well as for the confirmation of MS results by directed peptide synthesis and dephosphorylation kinetics, the release of phosphate over time from peptides or libraries had to be monitored: The libraries and peptides were dissolved in 25% DMSO and 75% H2O at 10 mM. The EnzChek Phosphate Assay Kit (Thermo Fisher Scientific) was used to assess the kinetics/dynamics of the library or peptide dephosphorylation by PP1c and PP2Ac. The assay was carried out in a volume of 100 µL reaction buffer (20 mM Tris, 100 mM NaCl, 1 mM DTT, 0.15 units PNP, 0.2 mM MESG,) containing 100 µM phosphopeptide library or indicated concentrations of peptide and 25 nM phosphatase. Because of our goal to identify differences in selectivity, we used equimolar concentrations of the phosphatases. […] The change of absorbance was detected at 360 nm at 25 °C on a Synergy H4 microplate reader using the software Gen5. […] For analysis of enzyme kinetics, raw data were further analyzed in GraphPad Prism v6.
(§2) The datasets of Nterm or Cterm libraries treated with recombinant PP1c and PP2Ac were used. […] Data analysis was carried out in GraphPad Prism v6 and the kcat/Km was calculated by comparison to a phosphate standard. […]

PP1c = target: T2, PP1c (Homo sapiens, UniProt P62136); experiment: Kinetics of phosphopeptide dephosphorylation by PP1c (EnzChek Phosphate Assay); format: biochemical; conditions: non-competitive phosphatase activity assay, Supplementary Fig. 3c
T2 construct: His tag with TEV site (N, cleaved yes); intein (pTXB1) (C, cleaved yes); made in house; host or cells: E. coli BL21Star(DE3)pRARE
Method: as §1, §2

[1] = test system: GAB2/GFP-14-3-3β interaction; experiment: GAB2/14-3-3 binding assay (GFP-14-3-3β pull-down, Western blot); parameters: species or system human
Method: pEGFP(C1)-14-3-3β or pCMV-GAB2-3FLAG was transfected into HeLa Kyoto cells as described in the respective section for 24 h. Cells were incubated with or w/o 20 nM Calyculin A (# 9902 S, Cell Signaling Technology) in complete growth media for 12 min. Cells were washed twice on ice with cold PBS and after addition of 500 µL lysis buffer (100 mM NaCl, 10 mM Tris, 0.1% IGEPAL, 1 mM EDTA, 1 mM EGTA, 20 nM Calyculin A, 1x cOmplete Mini protease inhibitor cocktail (Sigma), 2 mM DTT, 2 mM MnCl2) cells were scraped from plates, lysed by 10 pushes through an injection needle and the insoluble fraction was pelleted by centrifugation (10 min, 10^4 rcf, 4 °C). Supernatants were then subjected to incubation with 1 µM recombinant PP1c (if not indicated otherwise) or buffer for 1 h at 30 °C. […] Next, we subjected samples to immunoprecipitation/pull-down using 25 µL of α-FLAG M2 magnetic bead slurry (Sigma-Aldrich) or an equal volume of bead-coupled α-GFP nanobodies (EMBL PEPcore Core Facility) for 2 h at 4 °C. Beads were then washed three times with lysis buffer and samples were eluted in 1x SDS sample buffer by heating to 95 °C for 10 min and further analyzed by SDS PAGE for 14-3-3/GAB2 association and phosphorylation status of GAB2-pS210.
For SDS-PAGE, samples were loaded on NuPAGE™ 4-12% Bis-Tris protein gels (Invitrogen) and gel electrophoresis was performed at 180 V constant in 1x MOPS buffer. Samples were transferred onto CN blotting membranes (0.45 µm, neoLab) by wet blotting. Membranes were stained using Ponceau, followed by blocking with Tris-buffered saline with 0.1% Tween (TBS-T) containing 5% (w/v) non-fat milk for 45 min at room temperature. After three washes (5 min), membranes were then incubated with the following antibodies in TBS-T with 5% BSA overnight at 4 °C: α-GFP (1:2000, Abcam, ab6556), α-GAB2 (1:1000, CST, #3239), α-GAB2-pS210 (1:250, Symansis, customized purification), α-FLAG (1:1000, M2, Sigma-Aldrich, F3165), α-pan14-3-3 (1:500, SCBT, sc-629), α-PP1 (1:1000, SCBT, sc-7482), α-PP2A (1:1000, SCBT, sc-130237) or α-6His (1:2000, Abcam, ab9108). Afterwards blots were washed three times in TBS-T and incubated with goat anti-mouse IgG-peroxidase conjugate (1:2500, Sigma, A0168), donkey anti-rabbit IgG-horseradish peroxidase (HRP) conjugate (1:2500, GE Healthcare, GENA934), or rabbit anti-sheep IgG (H + L) HRP conjugate (1:2500, Thermo Fisher Scientific, 61-8620) for 2 h at room temperature. […] All blots were quantified using raw images and ImageLab software (v6.0.1, BioRad): Files were imported and analyzed without further modifications. […] The quantification was exported from the analysis table and measurements of background adjusted band volumes where used for further normalization steps and graphical depiction. […]

GAB2-pS210 = experiment: In vitro dephosphorylation of GAB2-pS210 (Western blot); format: biochemical, human; conditions: GAB2-pS210 relative to GAB2, Calyculin A 20 nM 12 min in HeLa Kyoto cells, recombinant PP1c 1 µM, 1 h at 30 °C in lysate
Method: pEGFP(C1)-14-3-3β or pCMV-GAB2-3FLAG was transfected into HeLa Kyoto cells as described in the respective section for 24 h. Cells were incubated with or w/o 20 nM Calyculin A (# 9902 S, Cell Signaling Technology) in complete growth media for 12 min. Cells were washed twice on ice with cold PBS and after addition of 500 µL lysis buffer (100 mM NaCl, 10 mM Tris, 0.1% IGEPAL, 1 mM EDTA, 1 mM EGTA, 20 nM Calyculin A, 1x cOmplete Mini protease inhibitor cocktail (Sigma), 2 mM DTT, 2 mM MnCl2) cells were scraped from plates, lysed by 10 pushes through an injection needle and the insoluble fraction was pelleted by centrifugation (10 min, 10^4 rcf, 4 °C). […] Beads were then washed three times with lysis buffer and samples were eluted in 1x SDS sample buffer by heating to 95 °C for 10 min and further analyzed by SDS PAGE for 14-3-3/GAB2 association and phosphorylation status of GAB2-pS210.
For SDS-PAGE, samples were loaded on NuPAGE™ 4-12% Bis-Tris protein gels (Invitrogen) and gel electrophoresis was performed at 180 V constant in 1x MOPS buffer. […] All blots were quantified using raw images and ImageLab software (v6.0.1, BioRad): Files were imported and analyzed without further modifications. […] The quantification was exported from the analysis table and measurements of background adjusted band volumes where used for further normalization steps and graphical depiction. […]

PP1/PP2A = conditions: 20 nM Calyculin A in cell culture medium and lysis buffer; ref PMID 30338897; cited from earlier work
Text: page 8: an adjusted p-value <0.01 are highlighted in bold in the heat-map comparing PP1c/PP2Ac. […] Furthermore, this new comparison also brought to our attention an apparently very strong differential effect of Pro in +1. We have therefore synthesized the Cterm peptide AAAApTPFGAK. Like in the case of ba ...

[2] = test system: mKate2-GAB2 localization in Caco-2 BBe1 cells; experiment: GAB2 recruitment to the plasma membrane, live-cell confocal microscopy, Caco-2 BBe1; format: cell-based, human; conditions: Caco-2 BBe1, starved, 12 min; EGF 100 ng/mL; PDP-Nal/PDPm-Nal 50 µM; n = 19/13/13 cells for EGF/PDP-Nal/PDPm-Nal
Method: (§3) The cells were seeded on 8-well ibiTreat µslides (Ibidi) and transfected as described in the respective section. In order to serum-starve cells for 45 min to 1 h before imaging, cells were washed twice with warm PBS and cultivated in 200 µL DMEM without FBS and phenol red (Gibco) supplemented with 1 g/L L-glutamine and 1% penicillin/streptomycin. For imaging, cells were then mounted in an Okolab stage incubator system (37 °C, 5% CO2 using an H101-CRYO-BL temperature controller, CO2-O2 UNIT-BL gas controller, H101-HM active humidity controller and incubation chamber H101-NIKON-TI-S-ER). All images were acquired with the A1R Confocal Scanning System equipped on a Nikon Ti-E inverted microscope installed with an Apo TIRF 100x DIC N2 1.49 NA Oil objective. […] Images were acquired using the GaAsP detectors controlled with the NIS Elements 4.50 operating software. Time-lapse-experiments consisted of an image acquisition interval of 15 s for at least 12 min for each sample condition separately using an exposure time of 0.5 frames per second. […]
(§4) Supplementary Figure 8. […] For Caco-2 BBe1 the following number (n) of cells were analyzed: 19 (EGF), 13 (PDP-Nal), 13 (PDPm-Nal); for SW-480: 20 (EGF), 19 (PDP-Nal), […]

[3] = test system: mKate2-GAB2 localization in HeLa Kyoto cells; experiment: GAB2 recruitment to the plasma membrane, live-cell confocal microscopy, HeLa Kyoto; format: cell-based, human; conditions: starved, 5 min, EGF 100 ng/mL, PDP-Nal/PDPm-Nal 50 µM, n = 44/56/31 cells for EGF/PDP-Nal/PDPm-Nal
Method: The cells were seeded on 8-well ibiTreat µslides (Ibidi) and transfected as described in the respective section. In order to serum-starve cells for 45 min to 1 h before imaging, cells were washed twice with warm PBS and cultivated in 200 µL DMEM without FBS and phenol red (Gibco) supplemented with 1 g/L L-glutamine and 1% penicillin/streptomycin. For imaging, cells were then mounted in an Okolab stage incubator system (37 °C, 5% CO2 using an H101-CRYO-BL temperature controller, CO2-O2 UNIT-BL gas controller, H101-HM active humidity controller and incubation chamber H101-NIKON-TI-S-ER). All images were acquired with the A1R Confocal Scanning System equipped on a Nikon Ti-E inverted microscope installed with an Apo TIRF 100x DIC N2 1.49 NA Oil objective. […] Images were acquired using the GaAsP detectors controlled with the NIS Elements 4.50 operating software. Time-lapse-experiments consisted of an image acquisition interval of 15 s for at least 12 min for each sample condition separately using an exposure time of 0.5 frames per second. Cells were treated after frame 3 by adding 100 µL of starvation media (see above) with 300 ng/mL EGF (Gibco) or 150 µM PDP(m)-Nal resulting in final concentrations of 100 ng/mL for EGF and 50 µM for PDPs.
For image analysis, microscopy files were loaded into Fiji v2.0.0-rc-34/1.50a. […]

[4] = test system: mKate2-GAB2 localization in SW-480 cells; experiment: GAB2 recruitment to the plasma membrane, live-cell confocal microscopy, SW-480; format: cell-based, human; conditions: SW-480, starved, 12 min; EGF 100 ng/mL; PDP-Nal/PDPm-Nal 50 µM; n = 20/19/26 cells for EGF/PDP-Nal/PDPm-Nal
Method: as §3, §4

T2 sequence (P62136 whole entry): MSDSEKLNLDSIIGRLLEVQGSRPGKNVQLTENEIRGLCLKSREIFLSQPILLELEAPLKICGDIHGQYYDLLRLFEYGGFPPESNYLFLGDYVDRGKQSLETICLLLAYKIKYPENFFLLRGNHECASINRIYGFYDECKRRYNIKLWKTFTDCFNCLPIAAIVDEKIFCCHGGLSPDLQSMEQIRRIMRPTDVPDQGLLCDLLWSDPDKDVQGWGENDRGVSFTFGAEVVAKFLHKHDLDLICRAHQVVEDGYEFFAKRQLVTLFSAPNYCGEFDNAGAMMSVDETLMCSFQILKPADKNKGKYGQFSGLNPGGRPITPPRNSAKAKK
T1 sequence (P67775 1-308 limits assumed): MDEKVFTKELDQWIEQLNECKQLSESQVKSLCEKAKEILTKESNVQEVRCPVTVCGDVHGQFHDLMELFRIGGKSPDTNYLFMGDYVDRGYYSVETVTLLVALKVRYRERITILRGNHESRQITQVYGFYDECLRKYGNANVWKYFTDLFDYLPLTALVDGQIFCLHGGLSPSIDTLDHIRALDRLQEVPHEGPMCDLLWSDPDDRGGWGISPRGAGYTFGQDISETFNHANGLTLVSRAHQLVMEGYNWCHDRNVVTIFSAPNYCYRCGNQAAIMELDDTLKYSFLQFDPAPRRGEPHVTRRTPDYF

With “AAAApTPFGAK [Cterm peptide with Pro in +1]” the “dephosphorylation by PP2Ac of peptide with Pro in +1 (in words)” value (PP2Ac) was “unable to dephosphorylate” and the “dephosphorylation by PP1c of peptide with Pro in +1 (in words)” value (PP1c) was “good substrate”.
In the case of COC[C@@H]([C@H](O)[C@H](O)C(=O)NCC[C@H](C)c1nc(/C=C/C[C@@H]2O[C@]3(C[C@@H](O)[C@@H]2C)O[C@H]([C@H](C[C@H](O)[C@H](C)[C@H](O)[C@H](C)/C=C(C)/C(C)=C/C=C/C(C)=C\C#N)OC)[C@H](OP(=O)(O)O)C3(C)C)co1)N(C)C [Calyculin A, reference compound], the “interaction of GAB2 with overexpressed GFP-14-3-3β” value ([1]; Calyculin A 20 nM in cells, recombinant PP1c in lysate 1 h at 30 °C, PP1c-concentration-dependent, three independent experiments) is reported as “strongly increased”, the “interaction of GAB2 with GFP-14-3-3β, PP1c pre-inhibited” value ([1]; recombinant PP1c mixed with equimolar Calyculin A for 5–10 min before addition to lysate) is reported as “abolishes the effect” and the “p-level of GAB2 pS210” value (GAB2-pS210) is reported as “increased”. The “stabilization of phosphorylation of PP1/PP2A substrate sites (such as Ser259 of CRAF/Raf-1)” value (PP1/PP2A) was “stabilize”.
For EGF: epidermal growth factor (Gibco), the “GAB2 recruitment to the plasma membrane” value [2] was “GAB2 recruitment to the plasma membrane”, the “GAB2 recruitment to the plasma membrane” value [3] was “GAB2 recruitment to the plasma membrane” and the “GAB2 recruitment to the plasma membrane” value [4] was “GAB2 recruitment to the plasma membrane”.
